Experimental data taken from ChEMBL document CHEMBL3085750, “Discovery of 2-methylpyridine-based biaryl amides as γ-secretase modulators for the treatment of Alzheimer's disease” (Bioorg Med Chem Lett, 2013).
Activity calls are given as the source filed them. The rule behind the calls is not given here.

Assays:
[1] = Oral bioavailability in cynomolgus monkey at 5 mg/kg; type: ADME, organism-based, Macaca fascicularis; conditions: in vivo
[2] = Ratio of unbound plasma concentration in Sprague-Dawley rat to gamma-secretase-mediated amyloid beta-42 production in HEK293 cells; type: ADME, cell-based
Rattus norvegicus [3] = experiment: Reduction of amyloid beta-42 level in Sprague-Dawley rat brain at 100 mg/kg, po after 4 hrs by immunoassay relative to control; type: functional; set-up: scale not given: the % may be the effect or the level left
Rattus norvegicus [4] = experiment: Reduction of amyloid beta-40 level in Sprague-Dawley rat CSF at 100 mg/kg, po after 4 hrs by immunoassay; type: functional, organism-based; set-up: dose 100 mg/kg
Plasma [5] = experiment: Drug uptake in Sprague-Dawley rat plasma at 100 mg/kg, po after 4 to 36 hrs by LC/MS analysis; type: ADME, organism-based; set-up: dose 100 mg/kg, route oral; conditions: in vivo
[6] = Volume of distribution at steady state in rat at 2 mg/kg, iv; type: ADME, organism-based; set-up: dose 2 mg/kg, route intravenous; conditions: in vivo, read-out: Vdss
Rattus norvegicus [7] = experiment: Reduction of amyloid beta-42 level in Sprague-Dawley rat CSF at 30 mg/kg, po after 24 hrs by immunoassay relative to control; type: functional; set-up: scale not given: the % may be the effect or the level left
Rattus norvegicus [8] = experiment: Reduction of amyloid beta level in Sprague-Dawley rat CSF at 100 mg/kg, po after 36 hrs by immunoassay; type: functional, organism-based; set-up: dose 100 mg/kg
[9] = Clearance in cynomolgus monkey at 2 mg/kg, iv; type: ADME, organism-based, Macaca fascicularis; set-up: dose 2 mg/kg, route intravenous; conditions: in vivo
[10] = molecular target: Gamma-secretase (Homo sapiens) (UniProt Q96BI3+Q9NZ42+Q8WW43+P49768+Q92542+P49810); experiment: Selectivity ratio of IC50 for gamma-secretase-mediated notch processing in HEK293 cells by dual-cell luciferase reporter gene assay to IC50 for gamma-secretase-mediated amyloid beta-42 production in HEK293 cells by HTRF assay; type: cell-based
[11] = Oral bioavailability in rat at 5 mg/kg; type: ADME, organism-based; conditions: in vivo
[12] = Half life in rat at 2 mg/kg, iv; type: ADME, organism-based; set-up: dose 2 mg/kg, route intravenous; conditions: in vivo
[13] = Metabolic stability in human liver microsomes at 1 uM after 30 mins; type: ADME; conditions: read-out: Stability
Gamma-secretase [14] = experiment: Modulation of gamma-secretase in HEK293 cells expressing guinea pig Swedish mutant SFV-APP695sw assessed as inhibition of amyloid beta-42 production after 16 to 18 hrs by HTRF assay; type: cell-based, Homo sapiens
Plasma [15] = experiment: Unbound plasma concentration in Sprague-Dawley rat at 300 mg/kg; type: ADME, organism-based; set-up: dose 300 mg/kg; conditions: in vivo
Rattus norvegicus [16] = experiment: Toxicity in Sprague-Dawley rat assessed as histopathological changes at 30 to 300 mg/kg, po after 4 days by light microscopic analysis; type: organism-based; set-up: dose 30-300 mg/kg, route oral; conditions: in vivo, 96 h
Gamma-secretase [17] = experiment: Modulation of gamma-secretase in HEK293 cells expressing guinea pig Swedish mutant SFV-APP695sw assessed as inhibition of amyloid beta-40 production after 16 to 18 hrs by HTRF assay; type: cell-based, Homo sapiens
[18] = Clearance in rat at 2 mg/kg, iv; type: ADME, organism-based; set-up: dose 2 mg/kg, route intravenous; conditions: in vivo
[19] = Metabolic stability in rat liver microsomes at 1 uM after 30 mins; type: ADME; conditions: read-out: Stability
Rattus norvegicus [20] = experiment: Reduction of amyloid beta-42 level in Sprague-Dawley rat CSF at 300 mg/kg, po after 24 hrs by immunoassay relative to control; type: functional; set-up: scale not given: the % may be the effect or the level left
[21] = Volume of distribution at steady state in cynomolgus monkey at 2 mg/kg, iv; type: ADME, organism-based, Macaca fascicularis; set-up: dose 2 mg/kg, route intravenous; conditions: in vivo, read-out: Vdss
Rattus norvegicus [22] = experiment: Toxicity in Sprague-Dawley rat assessed as notch-associated effects at 30 to 300 mg/kg, po after 4 days by light microscopic analysis; type: organism-based; set-up: dose 30-300 mg/kg, route oral; conditions: in vivo, 96 h
Gamma-secretase [23] = experiment: Modulation of gamma-secretase in HEK293 cells expressing guinea pig Swedish mutant SFV-APP695sw coexpressing DLL4 assessed as inhibition of notch processing in human TE671 cells after 3 days by dual-cell luciferase reporter gene assay; type: cell-based
[24] = Apparent permeability in pig LLC-PK1 cells; type: ADME, cell-based, Sus scrofa
Cytochrome P450 3A4 = Cytochrome P450 3A4 (Homo sapiens, UniProt P08684); experiment: Inhibition of CYP3A4 (unknown origin) after 5 mins; type: ADME
Sequence of Cytochrome P450 3A4 (P08684 whole entry): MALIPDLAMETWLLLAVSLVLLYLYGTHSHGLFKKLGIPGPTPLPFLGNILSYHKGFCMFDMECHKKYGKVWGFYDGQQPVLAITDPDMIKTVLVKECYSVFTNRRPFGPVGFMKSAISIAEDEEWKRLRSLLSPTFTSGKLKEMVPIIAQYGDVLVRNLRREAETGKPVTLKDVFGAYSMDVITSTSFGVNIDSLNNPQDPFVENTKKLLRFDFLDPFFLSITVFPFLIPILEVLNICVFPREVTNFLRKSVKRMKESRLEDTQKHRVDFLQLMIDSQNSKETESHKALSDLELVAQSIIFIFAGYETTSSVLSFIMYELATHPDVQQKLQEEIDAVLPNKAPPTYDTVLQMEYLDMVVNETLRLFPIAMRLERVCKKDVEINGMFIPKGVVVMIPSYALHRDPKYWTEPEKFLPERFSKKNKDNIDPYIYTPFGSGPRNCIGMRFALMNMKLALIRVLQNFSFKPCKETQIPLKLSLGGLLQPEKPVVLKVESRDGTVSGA

Brain = experiment: Drug uptake in Sprague-Dawley rat brain at 100 mg/kg, po after 4 to 36 hrs by LC/MS analysis; type: ADME, organism-based; set-up: dose 100 mg/kg, route oral; conditions: in vivo
Rattus norvegicus [25] = experiment: Reduction of amyloid beta-42 level in Sprague-Dawley rat CSF at 100 mg/kg, po after 24 hrs by immunoassay relative to control; type: functional; set-up: scale not given: the % may be the effect or the level left
[26] = Half life in cynomolgus monkey at 2 mg/kg, iv; type: ADME, organism-based, Macaca fascicularis; set-up: dose 2 mg/kg, route intravenous; conditions: in vivo
[27] = Ratio of drug level in brain to plasma in Sprague-Dawley rat; type: ADME, cell-free; conditions: read-out: BPR
Cytochrome P450 2D6 = Cytochrome P450 2D6 (Homo sapiens, UniProt P10635); experiment: Inhibition of CYP2D6 (unknown origin) after 10 mins; type: ADME
Sequence of Cytochrome P450 2D6 (P10635 whole entry): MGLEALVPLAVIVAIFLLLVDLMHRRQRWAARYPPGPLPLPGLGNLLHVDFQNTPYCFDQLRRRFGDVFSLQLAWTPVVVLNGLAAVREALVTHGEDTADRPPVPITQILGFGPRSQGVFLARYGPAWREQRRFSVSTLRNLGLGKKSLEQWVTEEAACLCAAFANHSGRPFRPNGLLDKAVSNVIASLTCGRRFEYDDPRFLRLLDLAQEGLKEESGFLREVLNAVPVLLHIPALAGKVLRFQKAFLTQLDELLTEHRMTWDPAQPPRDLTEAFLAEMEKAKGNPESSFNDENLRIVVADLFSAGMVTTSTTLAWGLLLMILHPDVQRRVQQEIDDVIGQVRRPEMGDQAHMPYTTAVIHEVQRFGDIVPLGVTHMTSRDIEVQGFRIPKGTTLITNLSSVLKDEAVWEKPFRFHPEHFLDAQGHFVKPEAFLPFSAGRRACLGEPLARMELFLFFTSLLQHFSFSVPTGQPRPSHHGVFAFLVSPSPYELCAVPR

Rattus norvegicus [28] = experiment: Reduction of amyloid beta-42 level in Sprague-Dawley rat CSF at 100 mg/kg, po after 4 hrs by immunoassay relative to control; type: functional; set-up: scale not given: the % may be the effect or the level left
[29] = Efflux ratio of apparent permeability in pig LLC-PK1 cells; type: ADME, cell-based, Sus scrofa
Rattus norvegicus [30] = experiment: Reduction of amyloid beta-40 level in Sprague-Dawley rat brain at 100 mg/kg, po after 4 hrs by immunoassay; type: functional, organism-based; set-up: dose 100 mg/kg

Cc1cc(-c2ccc(NC(=O)[C@H](C)c3cc(C(F)(F)F)cc(C(F)(F)F)c3)cc2)ccn1
bioavailability [1]: 56% | Ratio [2]: 2 | Activity (Rattus norvegicus [3]): 33% | Activity (Rattus norvegicus [4]): inactive | Drug uptake (Plasma [5]): Active | Vd [6]: 4.3 L/kg | Activity (Rattus norvegicus [7]): 32% | Activity (Rattus norvegicus [8]): Active | clearance [9]: 2.67 mL/min/kg | Ratio IC50 [10]: 45 | bioavailability [11]: 100% | half-life [12]: 6 h | microsomal CLint at 1 µM [13]: < 14 µL/min/mg | IC50 (Gamma-secretase [14]): 0.26 µM | Cp(f) (Plasma [15]): 0.57 nM | Activity (Rattus norvegicus [16]): Non-toxic | IC50 (Gamma-secretase [17]): 3.1 µM | clearance [18]: 9.67 mL/min/kg | microsomal CLint at 1 µM [19]: < 14 µL/min/mg | Activity (Rattus norvegicus [20]): 55% | Vd [21]: 3.1 L/kg | Activity (Rattus norvegicus [22]): Non-toxic | IC50 (Gamma-secretase [23]): 11.8 µM | Papp [24]: 7.8 ×10⁻⁶ cm/s | IC50 (Cytochrome P450 3A4): > 27 µM | Drug uptake (Brain): Active | Activity (Rattus norvegicus [25]): 44% | half-life [26]: 15.9 h | Kp [27]: 2 | IC50 (Cytochrome P450 2D6): 4.1 µM | Activity (Rattus norvegicus [28]): 41% | efflux ratio [29]: 1.2 | Activity (Rattus norvegicus [30]): inactive
